Usually MIC stands for the lowest concentration that inhibits growth of the organism.

The structures appear in SMILES notation. Values after ≈ are worked out from the molar mass of the structure shown.

Assay in all cases: MIC, standard broth micro-dilution assay
Format in all cases: cell-based
A general note: In broth dilution the organism is exposed to a series of concentrations in liquid medium.

Assay [1] relates to Entercoccus gallinarum 245. Here is the method: (§1) The formula I compounds have in vitro and in vivo activity against Gram-positive pathogenic bacteria. The MIC's were determined using a standard broth micro-dilution assay.
Another assay relates to Entercoccus faecalis 276. Here is the method: as §1
The test system of assay [2] is Entercoccus faecalis 2041. Here is the method: as §1

For `CNC(CC(C)C)C(=O)NC1C(=O)NC(CC(N)=O)C(=O)NC2C(=O)NC3C(=O)NC(C(=O)NC(C(=O)O)c4cc(O)cc(O)c4-c4cc3ccc4O)C(OC3CC(C)(N)C(O)C(C)O3)c3ccc(c(Cl)c3)Oc3cc2cc(c3OC2OC(CO)C(O)C(O)C2OC2CC(C)(NCc3ccc(OS(C)(=O)=O)cc3)C(O)C(C)O2)Oc2ccc(cc2Cl)C1O` (stereo not drawn) [Compound 149, 4-methylsulfonyloxybenzyl], the minimal inhibitory concentration (MIC) was 16 µg/mL (≈ 9.01 µM) in assay [1], at most 0.06 µg/mL with Entercoccus faecalis 276 and at most 0.06 µg/mL in assay [2].
In the case of `CNC(CC(C)C)C(=O)NC1C(=O)NC(CC(N)=O)C(=O)NC2C(=O)NC3C(=O)NC(C(=O)NC(C(=O)O)c4cc(O)cc(O)c4-c4cc3ccc4O)C(OC3CC(C)(N)C(O)C(C)O3)c3ccc(c(Cl)c3)Oc3cc2cc(c3OC2OC(CO)C(O)C(O)C2OC2CC(C)(NCc3ccc(Oc4ccc(Cl)c(Cl)c4)cc3)C(O)C(C)O2)Oc2ccc(cc2Cl)C1O` (stereo not drawn) [Compound 81, 4-[3,4-dichlorophenoxy]benzyl], the MIC is 0.25 µg/mL (≈ 0.136 µM) in assay [1], at most 0.06 µg/mL against Entercoccus faecalis 276 and at most 0.06 µg/mL in assay [2].
As for `CNC(CC(C)C)C(=O)NC1C(=O)NC(CC(N)=O)C(=O)NC2C(=O)NC3C(=O)NC(C(=O)NC(C(=O)O)c4cc(O)cc(O)c4-c4cc3ccc4O)C(OC3CC(C)(N)C(O)C(C)O3)c3ccc(c(Cl)c3)Oc3cc2cc(c3OC2OC(CO)C(O)C(O)C2OC2CC(C)(NCc3ccc(NC(=O)c4ccc(F)cc4)cc3)C(O)C(C)O2)Oc2ccc(cc2Cl)C1O` (stereo not drawn) [Compound 193, 4-[(4-fluorobenzoyl)amino]benzyl], the figures for the MIC (in assay [1]; with Entercoccus faecalis 276; in assay [2]) were 1 µg/mL (≈ 0.55 µM), at most 0.06 µg/mL and at most 0.06 µg/mL, respectively.
For the molecule `CNC(CC(C)C)C(=O)NC1C(=O)NC(CC(N)=O)C(=O)NC2C(=O)NC3C(=O)NC(C(=O)NC(C(=O)O)c4cc(O)cc(O)c4-c4cc3ccc4O)C(OC3CC(C)(N)C(O)C(C)O3)c3ccc(c(Cl)c3)Oc3cc2cc(c3OC2OC(CO)C(O)C(O)C2OC2CC(C)(NCc3ccc(-c4ccc(F)cc4)cc3)C(O)C(C)O2)Oc2ccc(cc2Cl)C1O` (stereo not drawn) [Compound 211, 4-[4-flurophenyl]benzyl], the MIC (in assay [1]; in the assay on Entercoccus faecalis 276; in assay [2]) was at most 0.06 µg/mL throughout.
As for `CNC(CC(C)C)C(=O)NC1C(=O)NC(CC(N)=O)C(=O)NC2C(=O)NC3C(=O)NC(C(=O)NC(C(=O)O)c4cc(O)cc(O)c4-c4cc3ccc4O)C(OC3CC(C)(N)C(O)C(C)O3)c3ccc(c(Cl)c3)Oc3cc2cc(c3OC2OC(CO)C(O)C(O)C2OC2CC(C)(NCc3ccc(OC(=O)C4CCCCC4)cc3)C(O)C(C)O2)Oc2ccc(cc2Cl)C1O` (stereo not drawn) [Compound 157, 4-cyclohexanoyloxybenzyl], the MIC in assay [1] is 1 µg/mL (≈ 0.553 µM); with Entercoccus faecalis 276, at most 0.06 µg/mL; in assay [2], at most 0.06 µg/mL.
With `CNC(CC(C)C)C(=O)NC1C(=O)NC(CC(N)=O)C(=O)NC2C(=O)NC3C(=O)NC(C(=O)NC(C(=O)O)c4cc(O)cc(O)c4-c4cc3ccc4O)C(OC3CC(C)(N)C(O)C(C)O3)c3ccc(c(Cl)c3)Oc3cc2cc(c3OC2OC(CO)C(O)C(O)C2OC2CC(C)(NCc3ccc4c(c3O)Cc3ccccc3-4)C(O)C(C)O2)Oc2ccc(cc2Cl)C1O` (stereo not drawn) [Compound 103, 2-[1-hydroxy]fluorenylmethyl], the minimal inhibitory concentration (MIC) in assay [1] is 8 µg/mL (≈ 4.48 µM); in the assay on Entercoccus faecalis 276 it was 0.25 µg/mL (≈ 0.14 µM); in assay [2], at most 0.06 µg/mL.
The matching figures for `CNC(CC(C)C)C(=O)NC1C(=O)NC(CC(N)=O)C(=O)NC2C(=O)NC3C(=O)NC(C(=O)NC(C(=O)O)c4cc(O)cc(O)c4-c4cc3ccc4O)C(OC3CC(C)(N)C(O)C(C)O3)c3ccc(c(Cl)c3)Oc3cc2cc(c3OC2OC(CO)C(O)C(O)C2OC2CC(C)(NCc3ccc(Oc4cccc(Cl)c4)c([N+](=O)[O-])c3)C(O)C(C)O2)Oc2ccc(cc2Cl)C1O` (stereo not drawn) [Compound 87, 4-[3-chlorophenoxy]-3-nitrobenzyl]: 2 µg/mL (≈ 1.08 µM), at most 0.06 µg/mL and at most 0.06 µg/mL.
On to `CN[C@H](CC(C)C)C(=O)N[C@H]1C(=O)N[C@@H](CC(N)=O)C(=O)N[C@H]2C(=O)N[C@H]3C(=O)N[C@H](C(=O)N[C@H](C(=O)O)c4cc(O)cc(O)c4-c4cc3ccc4O)[C@H](O[C@H]3C[C@](C)(N)[C@@H](O)[C@H](C)O3)c3ccc(c(Cl)c3)Oc3cc2cc(c3O[C@@H]2O[C@H](CO)[C@@H](O)[C@H](O)[C@H]2O[C@H]2C[C@](C)(NCc3cccc(-c4ccccc4)c3)[C@@H](O)[C@H](C)O2)Oc2ccc(cc2Cl)[C@H]1O` [Compound 91, 3-phenylbenzyl], for which the MIC in assay [1] was 2 µg/mL (≈ 1.14 µM); against Entercoccus faecalis 276, at most 0.06 µg/mL; in assay [2], at most 0.06 µg/mL.
For the molecule `CNC(CC(C)C)C(=O)NC1C(=O)NC(CC(N)=O)C(=O)NC2C(=O)NC3C(=O)NC(C(=O)NC(C(=O)O)c4cc(O)cc(O)c4-c4cc3ccc4O)C(OC3CC(C)(N)C(O)C(C)O3)c3ccc(c(Cl)c3)Oc3cc2cc(c3OC2OC(CO)C(O)C(O)C2OC2CC(C)(NCC34CC5CC(CC(C5)C3)C4)C(O)C(C)O2)Oc2ccc(cc2Cl)C1O` (stereo not drawn) [Compound 141, 1-adamantylmethyl], the MIC was 4 µg/mL (≈ 2.3 µM) in assay [1], 0.5 µg/mL (≈ 0.287 µM) with Entercoccus faecalis 276 and at most 0.06 µg/mL in assay [2].
In the case of `CNC(CC(C)C)C(=O)NC1C(=O)NC(CC(N)=O)C(=O)NC2C(=O)NC3C(=O)NC(C(=O)NC(C(=O)O)c4cc(O)cc(O)c4-c4cc3ccc4O)C(OC3CC(C)(N)C(O)C(C)O3)c3ccc(c(Cl)c3)Oc3cc2cc(c3OC2OC(CO)C(O)C(O)C2OC2CC(C)(NCc3cccnc3)C(O)C(C)O2)Oc2ccc(cc2Cl)C1O` (stereo not drawn) [Compound 24, 3-pyridylmethyl], the MIC in assay [1] was 0.25 µg/mL (≈ 0.148 µM); against Entercoccus faecalis 276, 0.25 µg/mL (≈ 0.148 µM); in assay [2], at most 0.06 µg/mL.
`CNC(CC(C)C)C(=O)NC1C(=O)NC(CC(N)=O)C(=O)NC2C(=O)NC3C(=O)NC(C(=O)NC(C(=O)O)c4cc(O)cc(O)c4-c4cc3ccc4O)C(OC3CC(C)(N)C(O)C(C)O3)c3ccc(c(Cl)c3)Oc3cc2cc(c3OC2OC(CO)C(O)C(O)C2OC2CC(C)(NCc3cccc(OC4CCCCC4)c3)C(O)C(C)O2)Oc2ccc(cc2Cl)C1O` (stereo not drawn) [Compound 153]: the MIC in assay [1] is 1 µg/mL (≈ 0.562 µM); with Entercoccus faecalis 276 it was 0.5 µg/mL (≈ 0.281 µM); in assay [2], at most 0.06 µg/mL.
Turning to `CNC(CC(C)C)C(=O)NC1C(=O)NC(CC(N)=O)C(=O)NC2C(=O)NC3C(=O)NC(C(=O)NC(C(=O)O)c4cc(O)cc(O)c4-c4cc3ccc4O)C(OC3CC(C)(N)C(O)C(C)O3)c3ccc(cc3)Oc3cc2cc(c3OC2OC(CO)C(O)C(O)C2OC2CC(C)(NCc3ccc(-c4ccccc4)cc3)C(O)C(C)O2)Oc2ccc(cc2Cl)C1O` (stereo not drawn) [Compound 182, 4-phenylbenzyl], the MIC (in assay [1]; with Entercoccus faecalis 276; in assay [2]) was 1 µg/mL (≈ 0.58 µM) each time.
Turning to `CNC(CC(C)C)C(=O)NC1C(=O)NC(CC(N)=O)C(=O)NC2C(=O)NC3C(=O)NC(C(=O)NC(C(=O)O)c4cc(O)cc(O)c4-c4cc3ccc4O)C(OC3CC(C)(N)C(O)C(C)O3)c3ccc(c(Cl)c3)Oc3cc2cc(c3OC2OC(CO)C(O)C(O)C2OC2CC(C)(NCc3ccc(O)cc3)C(O)C(C)O2)Oc2ccc(cc2Cl)C1O` (stereo not drawn) [Compound 136, 4-hydroxybenzyl], the values for the MIC (in assay [1]; against Entercoccus faecalis 276; in assay [2]) were 4 µg/mL (≈ 2.35 µM), at most 0.06 µg/mL and at most 0.06 µg/mL, respectively.
Consider `CNC(CC(C)C)C(=O)NC1C(=O)NC(CC(N)=O)C(=O)NC2C(=O)NC3C(=O)NC(C(=O)NC(C(=O)O)c4cc(O)cc(O)c4-c4cc3ccc4O)C(OC3CC(C)(N)C(O)C(C)O3)c3ccc(c(Cl)c3)Oc3cc2cc(c3OC2OC(CO)C(O)C(O)C2OC2CC(C)(NCCCc3ccc(OC)cc3)C(O)C(C)O2)Oc2ccc(cc2Cl)C1O` (stereo not drawn) [Compound 175, 3-[4-methoxyphenyl]propyl], for which the MIC in assay [1] was 4 µg/mL (≈ 2.3 µM); in the assay with Entercoccus faecalis 276 it was at most 0.06 µg/mL; in assay [2], at most 0.06 µg/mL.
On to `CNC(CC(C)C)C(=O)NC1C(=O)NC(CC(N)=O)C(=O)NC2C(=O)NC3C(=O)NC(C(=O)NC(C(=O)O)c4cc(O)cc(O)c4-c4cc3ccc4O)C(OC3CC(C)(N)C(O)C(C)O3)c3ccc(c(Cl)c3)Oc3cc2cc(c3OC2OC(CO)C(O)C(O)C2OC2CC(C)(NCCCCCCCCCCCCc3ccccc3)C(O)C(C)O2)Oc2ccc(cc2Cl)C1O` (stereo not drawn) [Compound 234, 12-phenyldodecyl], for which the values for the MIC (in assay [1]; in the assay with Entercoccus faecalis 276; in assay [2]) were 16 µg/mL (≈ 8.71 µM), 4 µg/mL (≈ 2.18 µM) and 0.5 µg/mL (≈ 0.272 µM), respectively.
In the case of `CCCCCCCCCCC#CCNC1(C)CC(OC2C(Oc3c4cc5cc3Oc3ccc(cc3Cl)C(OC3CC(C)(N)C(O)C(C)O3)C3NC(=O)C(NC(=O)C5NC(=O)C(CC(N)=O)NC(=O)C(NC(=O)C(CC(C)C)NC)C(O)c5ccc(c(Cl)c5)O4)c4ccc(O)c(c4)-c4c(O)cc(O)cc4C(C(=O)O)NC3=O)OC(CO)C(O)C2O)OC(C)C1O` (stereo not drawn) [Compound 191, 2-tridecynyl], the MIC was found to be 8 µg/mL (≈ 4.52 µM) in assay [1], 4 µg/mL (≈ 2.26 µM) in the assay with Entercoccus faecalis 276 and 1 µg/mL (≈ 0.565 µM) in assay [2].
With `CNC(CC(C)C)C(=O)NC1C(=O)NC(CC(N)=O)C(=O)NC2C(=O)NC3C(=O)NC(C(=O)NC(C(=O)O)c4cc(O)cc(O)c4-c4cc3ccc4O)C(OC3CC(C)(N)C(O)C(C)O3)c3ccc(c(Cl)c3)Oc3cc2cc(c3OC2OC(CO)C(O)C(O)C2OC2CC(C)(NCc3ccc(OCCOCCCl)cc3)C(O)C(C)O2)Oc2ccc(cc2Cl)C1O` (stereo not drawn) [Compound 75], the values for the MIC (in assay [1]; with Entercoccus faecalis 276; in assay [2]) were 4 µg/mL (≈ 2.22 µM), at most 0.06 µg/mL and at most 0.06 µg/mL, respectively.
Regarding `CC#CCCCCCCCCCCNC1(C)CC(OC2C(Oc3c4cc5cc3Oc3ccc(cc3Cl)C(OC3CC(C)(N)C(O)C(C)O3)C3NC(=O)C(NC(=O)C5NC(=O)C(CC(N)=O)NC(=O)C(NC(=O)C(CC(C)C)NC)C(O)c5ccc(c(Cl)c5)O4)c4ccc(O)c(c4)-c4c(O)cc(O)cc4C(C(=O)O)NC3=O)OC(CO)C(O)C2O)OC(C)C1O` (stereo not drawn) [Compound 199, 11-tridecynyl], the minimum inhibitory concentration (MIC) in assay [1] is 4 µg/mL (≈ 2.26 µM); in the assay on Entercoccus faecalis 276, 1 µg/mL (≈ 0.565 µM); in assay [2] it was at most 0.06 µg/mL.

The values are drawn from patent US5843889A, “Glycopeptide antibiotic derivatives” (Eli Lilly and Company, priority 1997, dated 1998).
